From ChEMBL document CHEMBL1944622, “Constituents of Dalbergia sissoo Roxb. leaves with osteogenic activity” (Bioorg Med Chem Lett, 2012)
Activity calls are given as the source filed them. The rule behind the calls is not given here.

Experiments:
Calvarial osteoblast [1] = experiment: Osteogenic activity in rat primary calvarial osteoblasts assessed as induction of ALP activity at 1 pM to 1 uM after 10 days by colorimetry; assay type: functional, cell-based
Ishikawa [2] = experiment: Estrogenic activity in ER expressing human Ishikawa cells assessed as induction of ALP activity at 100 pM relative to control; assay type: functional
Ishikawa [3] = experiment: Estrogenic activity in ER expressing human Ishikawa cells assessed as induction of ALP activity at 1 pM to 1 uM; assay type: functional, cell-based
Ishikawa [4] = experiment: Antiestrogenic activity in ER expressing human Ishikawa cells assessed as inhibition of ALP activity at 1 pM to 1 uM; assay type: functional, cell-based
Calvarial osteoblast [5] = experiment: Osteogenic activity in rat primary calvarial osteoblasts assessed as induction of ALP activity at 1 pM to 1 uM after 10 days by colorimetry in presence of anti-estrogen ICI-182780; assay type: functional, cell-based
Ishikawa [6] = experiment: Estrogenic activity in ER expressing human Ishikawa cells assessed as induction of ALP activity at 1 pM to 1 uM in presence of 17beta-E2; assay type: functional, cell-based
[7] = Toxicity in rat calvarial osteoblast cells at 1 pM to 1 uM after 48 hrs by MTT assay; assay type: cell-based
Calvarial osteoblast [8] = experiment: Induction of rat calvarial osteoblast mineralization assessed as increase in formation of mineralized calcium nodules at 10 nM after 21 days by alizarin red-S staining-based assay; assay type: functional, cell-based
[9] = Upregulation of BMP-2 in rat primary calvarial osteoblast cells after 48 hrs by qPCR analysis relative to control; assay type: functional, cell-based
Ishikawa [10] = experiment: Estrogenic activity in ER expressing human Ishikawa cells assessed as induction of ALP activity at 10 nM; assay type: functional, cell-based
Calvarial osteoblast [11] = experiment: Osteogenic activity in rat calvarial osteoblasts assessed as induction of ALP activity at 10 nM after 48 hrs by spectrophotometry in presence of anti-estrogen ICI-182780; assay type: functional, cell-based
Rattus norvegicus [12] = experiment: Osteogenic activity in rat assessed as increase in ALP expression in calvaria at 1 mg/kg, sc qd for 3 days by qPCR analysis; assay type: functional, organism-based; set-up: dose 1 mg/kg
Rattus norvegicus [13] = experiment: Osteogenic activity in rat assessed as increase in ALP expression in calvaria at 5 mg/kg, sc qd for 3 days by qPCR analysis; assay type: functional, organism-based; set-up: dose 5 mg/kg
Rattus norvegicus [14] = experiment: Osteogenic activity in rat assessed as increase in ALP expression in calvaria administered as sc qd for 3 days by qPCR analysis; assay type: functional, organism-based
Rattus norvegicus [15] = experiment: Osteogenic activity in rat assessed as increase in ALP expression in calvaria at 10 mg/kg, sc qd for 3 days by qPCR analysis; assay type: functional, organism-based; set-up: dose 10 mg/kg
Rattus norvegicus [16] = experiment: Osteogenic activity in rat assessed as increase in collagen-1 expression in calvaria at 1 mg/kg, sc qd for 3 days by qPCR analysis; assay type: functional, organism-based; set-up: dose 1 mg/kg
Rattus norvegicus [17] = experiment: Osteogenic activity in rat assessed as increase in collagen-1 expression in calvaria at 5 mg/kg, sc qd for 3 days by qPCR analysis; assay type: functional, organism-based; set-up: dose 5 mg/kg
Rattus norvegicus [18] = experiment: Osteogenic activity in rat assessed as increase in collagen-1 expression in calvaria at 10 mg/kg, sc qd for 3 days by qPCR analysis; assay type: functional, organism-based; set-up: dose 10 mg/kg
Calvarial osteoblast [19] = experiment: Induction of rat calvarial osteoblast mineralization assessed as increase in formation of mineralized calcium nodules at 1 pM after 21 days by alizarin red-S staining-based assay; assay type: functional, cell-based
Calvarial osteoblast [20] = experiment: Osteogenic activity in rat primary calvarial osteoblasts assessed as induction of ALP activity at 1 pM after 10 days by colorimetry; assay type: functional, cell-based

With `COc1cc(OC)c(-c2coc3cc(O[C@@H]4O[C@H](CO)[C@@H](O)[C@H](O)[C@H]4O)c(OC)c(O)c3c2=O)cc1OC` as the molecule, how does the Activity (Calvarial osteoblast [1]) read?
Its Activity is “inactive”.

For `COc1cc(OC)c(-c2coc3cc(O)c(OC)c(O)c3c2=O)cc1OC`, which Activity (Calvarial osteoblast [1]) is on record?
The Activity was “inactive”.

With `COc1ccc(-c2coc3cc(O[C@@H]4O[C@H](CO[C@@H]5OC[C@](O)(CO)[C@H]5O)[C@@H](O)[C@H](O)[C@H]4O)cc(O)c3c2=O)cc1` as the molecule, how does the Activity (Calvarial osteoblast [1]) read?
Its Activity is “inactive”.

With `C[C@@H]1O[C@@H](OC[C@H]2O[C@@H](Oc3c(-c4ccc(O)cc4)oc4cc(O)cc(O)c4c3=O)[C@H](O)[C@@H](O)[C@@H]2O)[C@H](O)[C@H](O)[C@H]1O` as the molecule, how does the Activity (Calvarial osteoblast [1]) read?
The Activity was “inactive”.

Which “fold change (FC)” value (Ishikawa [2]) does the source give for `C[C@]12CC[C@@H]3c4ccc(O)cc4CC[C@H]3[C@@H]1CC[C@@H]2O` [ESTRADIOL] here?
The value was 1.5.

For `COC(=O)C/C(=C\c1ccc(O)c(O)c1)C(=O)O`, which Activity (Calvarial osteoblast [1]) is on record?
The Activity was “inactive”.

For `C[C@@H]1O[C@@H](OC[C@H]2O[C@@H](Oc3c(-c4ccc(O)c(O)c4)oc4cc(O)cc(O)c4c3=O)[C@H](O)[C@@H](O)[C@@H]2O)[C@H](O)[C@H](O)[C@H]1O`, which Activity (Calvarial osteoblast [1]) is on record?
The Activity was “inactive”.

Which Activity (Calvarial osteoblast [1]) does the source give for `COc1ccc(-c2coc3cc(O)cc(O)c3c2=O)cc1O` [PRATENSEIN] here?
Its Activity is “Active”.

And the Activity (Ishikawa [3])?
Its Activity is “inactive”.

And the Activity (Ishikawa [4])?
Its Activity is “inactive”.

What about the Activity (Calvarial osteoblast [5]) of the same molecule?
Its Activity is “Active”.

What about the inhibition (Ishikawa [6]) of the same molecule?
The inhibition was “inactive”.

And the Activity [7]?
Its Activity is “Non-toxic”.

What about the Activity (Calvarial osteoblast [8]) of the same molecule?
Its Activity is “Active”.

With `COc1ccc(-c2coc3cc(O[C@@H]4O[C@H](CO[C@@H]5OC[C@](O)(CO[C@@H]6OC[C@](O)(CO)[C@H]6O)[C@H]5O)[C@@H](O)[C@H](O)[C@H]4O)cc(O)c3c2=O)cc1` as the molecule, how does the Activity (Calvarial osteoblast [1]) read?
The Activity was “inactive”.

For `O=c1c(-c2ccc(O)cc2)coc2cc(O)cc(O)c12` [GENISTEIN], which Activity (Calvarial osteoblast [1]) is on record?
Its Activity is “Active”.

What about the Activity (Ishikawa [3]) of the same molecule?
Its Activity is “inactive”.

And the Activity (Ishikawa [4])?
Its Activity is “inactive”.

What about the Activity (Calvarial osteoblast [5]) of the same molecule?
The Activity was “Active”.

What about the inhibition (Ishikawa [6]) of the same molecule?
The inhibition was “inactive”.

What about the fold change (FC) [9] of the same molecule?
The fold change (FC) was 5.

What about the Activity [7] of the same molecule?
Its Activity is “Non-toxic”.

What about the Activity (Calvarial osteoblast [8]) of the same molecule?
The Activity was “Active”.

For `COc1cc([C@H]2OC[C@H]3[C@@H]2CO[C@@H]3c2cc(OC)c(O[C@@H]3O[C@H](CO)[C@@H](O)[C@H](O)[C@H]3O)c(OC)c2)cc(OC)c1O`, which Activity (Calvarial osteoblast [1]) is on record?
Its Activity is “inactive”.

Which Activity (Calvarial osteoblast [1]) does the source give for `COc1ccc(-c2coc3cc(O)cc(O)c3c2=O)cc1` [BIOCHANIN] here?
Its Activity is “Active”.

And the Activity (Ishikawa [10])?
The Activity was “Active”.

And the Activity (Calvarial osteoblast [11])?
The Activity was “inactive”.

What about the Activity [7] of the same molecule?
The Activity was “Non-toxic”.

And the Activity (Calvarial osteoblast [8])?
The Activity was “Active”.

Which Activity (Calvarial osteoblast [1]) does the source give for `O=c1c(O[C@@H]2O[C@H](CO)[C@@H](O)[C@H](O)[C@H]2O)c(-c2ccc(O)cc2)oc2cc(O)cc(O)c12` here?
Its Activity is “inactive”.

Which Activity (Calvarial osteoblast [1]) does the source give for `COc1cc(OC)c(-c2coc3cc(O[C@@H]4O[C@H](CO[C@@H]5OC[C@](O)(CO)[C@H]5O)[C@@H](O)[C@H](O)[C@H]4O)c(OC)c(O)c3c2=O)cc1OC` here?
The Activity was “Active”.

What about the Activity (Rattus norvegicus [12]) of the same molecule?
The Activity was “Active”.

What about the Activity (Rattus norvegicus [13]) of the same molecule?
The Activity was “Active”.

And the Activity (Rattus norvegicus [14])?
The Activity was “Dose-dependent effect”.

What about the Activity (Rattus norvegicus [15]) of the same molecule?
Its Activity is “inactive”.

What about the Activity (Rattus norvegicus [16]) of the same molecule?
The Activity was “Active”.

What about the Activity (Rattus norvegicus [17]) of the same molecule?
The Activity was “inactive”.

And the Activity (Rattus norvegicus [18])?
The Activity was “inactive”.

And the Activity (Ishikawa [3])?
The Activity was “inactive”.

And the Activity (Ishikawa [4])?
The Activity was “inactive”.

And the Activity (Calvarial osteoblast [5])?
The Activity was “Active”.

And the inhibition (Ishikawa [6])?
Its inhibition is “inactive”.

And the fold change (FC) [9]?
Its fold change (FC) is 15.

And the Activity [7]?
Its Activity is “Non-toxic”.

And the Activity (Calvarial osteoblast [19])?
The Activity was “Active”.

And the Activity (Calvarial osteoblast [20])?
Its Activity is “Active”.

With `O=c1c(O[C@@H]2O[C@H](CO)[C@@H](O)[C@H](O)[C@H]2O)c(-c2ccc(O)c(O)c2)oc2cc(O)cc(O)c12` as the molecule, how does the Activity (Calvarial osteoblast [1]) read?
The Activity was “inactive”.
